Data taken from PubChem BioAssay (NCI).
≈ marks a conversion by molar mass, not a printed value. Where “and” joins values, the source holds several entries; their conditions need not be identical. Equal values may be shown once.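 These data come from cells grown in 96-well plates and exposed to compound for 48 hours at five concentrations. GI50 is the concentration that inhibits growth by half. At the TGI there is no net growth.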

Key:
Assay in all cases: NCI-60 cell line screen, 48 h
K-562 leukemia = tested on: K-562 leukemia
LOX IMVI melanoma = tested on: LOX IMVI melanoma
NCI-H460 lung = tested on: NCI-H460 lung
EKVX NSCLC = tested on: EKVX NSCLC
U251 CNS = tested on: U251 CNS
NCI-H226 lung = tested on: NCI-H226 lung
SR leukemia = tested on: SR leukemia
PC-3 prostate = tested on: PC-3 prostate
HCT-116 colon = tested on: HCT-116 colon
786-0 renal = tested on: 786-0 renal
HOP-92 NSCLC = tested on: HOP-92 NSCLC
HCC-2998 colon = tested on: HCC-2998 colon
UACC-62 melanoma = tested on: UACC-62 melanoma
RPMI-8226 leukemia = tested on: RPMI-8226 leukemia
DU-145 prostate = tested on: DU-145 prostate
CCRF-CEM leukemia = tested on: CCRF-CEM leukemia
NCI-H522 lung = tested on: NCI-H522 lung
SK-MEL-28 melanoma = tested on: SK-MEL-28 melanoma
SF-295 CNS = tested on: SF-295 CNS
A549 NSCLC = tested on: A549 NSCLC
M14 melanoma = tested on: M14 melanoma
MOLT-4 leukemia = tested on: MOLT-4 leukemia
SK-OV-3 ovarian = tested on: SK-OV-3 ovarian
HL-60(TB) leukemia = tested on: HL-60(TB) leukemia
TK-10 renal = tested on: TK-10 renal
IGROV1 ovarian = tested on: IGROV1 ovarian
UACC-257 melanoma = tested on: UACC-257 melanoma
SK-MEL-5 melanoma = tested on: SK-MEL-5 melanoma
COLO 205 colon = tested on: COLO 205 colon
SF-268 CNS = tested on: SF-268 CNS
A498 renal = tested on: A498 renal
KM12 colon = tested on: KM12 colon
CAKI-1 renal = tested on: CAKI-1 renal
BT-549 breast = tested on: BT-549 breast
UO-31 renal = tested on: UO-31 renal

What does the source list for `O=C(Nc1cccc(-n2ccc3c(NC(=O)c4ccccc4)nccc32)c1)c1ccc(Cl)c(C(F)(F)F)c1`?
TGI (K-562 leukemia): 6.77 µM and 50.9 µM; GI50 (LOX IMVI melanoma): 0.163 µM and 0.612 µM; GI50 (NCI-H460 lung): 0.116 µM and 0.481 µM; TGI (EKVX NSCLC): 17.1 µM and > 100 µM; GI50 (U251 CNS): 0.125 µM and 0.759 µM; TGI (NCI-H226 lung): 10.2 µM and > 100 µM; TGI (SR leukemia): 6.71 µM and 15.7 µM; GI50 (PC-3 prostate): 0.143 µM and 0.95 µM; GI50 (HCT-116 colon): 0.136 µM and 0.513 µM

How did the GI50 (K-562 leukemia) turn out when `COCCCC(NC(=O)C(CC(C)C)NC(=O)OCc1ccc(OC)cc1)C(=O)OC` (centres undefined) was run?
The GI50 was 36 µg/mL (≈ 82.1 µM).

What about the TGI (K-562 leukemia) of the same compound?
Its TGI is 81.5 µg/mL.

What about the GI50 (786-0 renal) of the same compound?
Its GI50 is 80.6 µg/mL (≈ 184 µM).

And the GI50 (HOP-92 NSCLC)?
The GI50 was 40.8 µg/mL (≈ 93 µM).

What about the TGI (HOP-92 NSCLC) of the same compound?
The TGI was 65.4 µg/mL (≈ 149 µM).

And the GI50 (HCC-2998 colon)?
Its GI50 is 32.5 µg/mL.

And the TGI (HCC-2998 colon)?
Its TGI is 75.1 µg/mL.

And the GI50 (UACC-62 melanoma)?
Its GI50 is 71.3 µg/mL (≈ 163 µM).

What about the GI50 (LOX IMVI melanoma) of the same compound?
Its GI50 is 96.4 µg/mL.

And the GI50 (NCI-H460 lung)?
Its GI50 is 23 µg/mL.

And the TGI (NCI-H460 lung)?
Its TGI is 46.2 µg/mL (≈ 105 µM).

And the GI50 (RPMI-8226 leukemia)?
The GI50 was 27 µg/mL (≈ 61.6 µM).

And the TGI (RPMI-8226 leukemia)?
Its TGI is 70 µg/mL (≈ 160 µM).

And the GI50 (DU-145 prostate)?
Its GI50 is 77.6 µg/mL (≈ 177 µM).

And the GI50 (CCRF-CEM leukemia)?
Its GI50 is 42.1 µg/mL (≈ 95.9 µM).

And the TGI (CCRF-CEM leukemia)?
The TGI was 87.1 µg/mL (≈ 199 µM).

What about the GI50 (NCI-H522 lung) of the same compound?
Its GI50 is 59.8 µg/mL (≈ 136 µM).

And the GI50 (SK-MEL-28 melanoma)?
The GI50 was 47.1 µg/mL (≈ 107 µM).

And the TGI (SK-MEL-28 melanoma)?
Its TGI is 76.6 µg/mL (≈ 175 µM).

What about the GI50 (SF-295 CNS) of the same compound?
Its GI50 is 83.3 µg/mL (≈ 190 µM).

What about the GI50 (SR leukemia) of the same compound?
Its GI50 is 18.8 µg/mL (≈ 42.8 µM).

And the TGI (SR leukemia)?
The TGI was 42.5 µg/mL.

What about the GI50 (A549 NSCLC) of the same compound?
The GI50 was 61.1 µg/mL (≈ 139 µM).

And the GI50 (M14 melanoma)?
The GI50 was 50.5 µg/mL (≈ 115 µM).

And the TGI (M14 melanoma)?
Its TGI is 85.3 µg/mL (≈ 194 µM).

And the GI50 (MOLT-4 leukemia)?
The GI50 was 39.4 µg/mL (≈ 89.9 µM).

What about the TGI (MOLT-4 leukemia) of the same compound?
Its TGI is 60.1 µg/mL (≈ 137 µM).

And the GI50 (SK-OV-3 ovarian)?
The GI50 was 71.6 µg/mL.

And the GI50 (HL-60(TB) leukemia)?
The GI50 was 26.9 µg/mL (≈ 61.3 µM).

What about the TGI (HL-60(TB) leukemia) of the same compound?
Its TGI is 57.5 µg/mL (≈ 131 µM).

With `CC(=O)N1N=C(c2ccc(C)cc2)CC1c1cn(-c2ccccc2)nc1-c1cccc(Nc2ccnc3cc(Cl)ccc23)c1` (centres undefined) as the compound, how does the GI50 (TK-10 renal) read?
The GI50 was > 100 µM.

And the TGI (TK-10 renal)?
Its TGI is > 100 µM.

And the GI50 (HCC-2998 colon)?
The GI50 was > 100 µM.

And the TGI (HCC-2998 colon)?
Its TGI is > 100 µM.

And the GI50 (IGROV1 ovarian)?
Its GI50 is > 100 µM.

What about the TGI (IGROV1 ovarian) of the same compound?
The TGI was > 100 µM.

What about the GI50 (UACC-257 melanoma) of the same compound?
The GI50 was > 100 µM.

And the TGI (UACC-257 melanoma)?
Its TGI is > 100 µM.

And the GI50 (SK-MEL-5 melanoma)?
Its GI50 is > 100 µM.

What about the TGI (SK-MEL-5 melanoma) of the same compound?
The TGI was > 100 µM.

What about the GI50 (COLO 205 colon) of the same compound?
Its GI50 is > 100 µM.

And the TGI (COLO 205 colon)?
Its TGI is > 100 µM.

And the GI50 (NCI-H226 lung)?
Its GI50 is > 100 µM.

What about the TGI (NCI-H226 lung) of the same compound?
The TGI was > 100 µM.

And the GI50 (SF-268 CNS)?
Its GI50 is > 100 µM.

And the TGI (SF-268 CNS)?
The TGI was > 100 µM.

And the GI50 (PC-3 prostate)?
The GI50 was > 100 µM.

What about the TGI (PC-3 prostate) of the same compound?
Its TGI is > 100 µM.

And the GI50 (A498 renal)?
The GI50 was > 100 µM.

And the TGI (A498 renal)?
Its TGI is > 100 µM.

What about the GI50 (KM12 colon) of the same compound?
Its GI50 is > 100 µM.

What about the TGI (KM12 colon) of the same compound?
Its TGI is > 100 µM.

And the GI50 (CAKI-1 renal)?
Its GI50 is > 100 µM.

And the TGI (CAKI-1 renal)?
Its TGI is > 100 µM.

And the GI50 (BT-549 breast)?
The GI50 was > 100 µM.

And the TGI (BT-549 breast)?
Its TGI is > 100 µM.

What about the GI50 (SK-OV-3 ovarian) of the same compound?
Its GI50 is > 100 µM.

And the TGI (SK-OV-3 ovarian)?
The TGI was > 100 µM.

And the GI50 (UO-31 renal)?
Its GI50 is > 100 µM.

What about the TGI (UO-31 renal) of the same compound?
Its TGI is > 100 µM.
